Test results taken from patent US20250145715A1, “B7-H3 TARGETING FUSION PROTEINS AND METHODS OF USE THEREOF” (GT Biopharma, Inc., priority 2021, published 2025).

Key:
Type in all cases: cell-based, human
MM1S cells = assay: IncuCyte Zoom NK cell killing of MM1S; settings: E:T 2:1 and 4:1
Source text: (§1) FIGS. 7A-7B illustrate the ability of peripheral blood NK cells with or without B7-H3-TriKE to kill myeloma cells in live imaging IncuCyte Zoom assays. FIG. 7A is a graph showing the effects with effector:target (E:T) ratios of 2:1 and 4:1 on MM1S cells. FIG. 7B is a graph showing the effects with effector:target (E:T) ratios of 2:1 and 4:1 on U266 cells.
as §1, with “8A-8D” for “7A-7B”, “8A is a graph showing the effects with effector:target (E:T) ratios of 2:1 and 4:1 on H929 cells. FIG. 8B” for “7A”, “8C is a graph showing the effects with effector:target (E:T) ratios of 2:1 and 4:1 on RPMI-8226 cells. FIG. 8D” for “7B”
FIGS. 9A-9D illustrate the efficacy of B7-H3-TriKE with the proteasome inhibitor bortezomib (10 nM) and the immunomodulatory drug lenalidomide (5 μM). FIG. 9A is a graph showing the effect of the combination therapy on H929 cells after 48 hours. FIG. 9B is a graph showing the effect of the combination therapy on RPMI-8226 cells after 48 hours. FIG. 9C is a graph showing the effect of the combination therapy on MM1S cells after 48 hours. FIG. 9D is a graph showing the effect of the combination therapy on U266 cells after 48 hours.
The ability of peripheral blood NK cells with or without B7-H3-TriKE to kill myeloma cells was compared in live imaging IncuCyte Zoom assays with escalating doses of TriKE. Maximal killing occurred with 3 nM concentration.
The efficacy of B7-H3-TriKE with the proteasome inhibitor bortezomib (10 nM) and the immunomodulatory drug lenalidomide (5 μM) was also tested. Cytotoxicity curves were compared by repeated measures ANOVA and performed in triplicate.

[1] = test system: NCI-H322 lung cancer cells; assay: NK cell CD107a / IFNγ flow cytometry against NCI-H322; settings: normal donor PBMCs, vs controls
Source text: FIGS. 24A-24F illustrate that B7-H3 TriKE enhances NK cell function against lung tumor targets. FIG. 24A is a graph showing pooled analysis of proportion of NK cells from healthy donors expressing CD107a+ against A549(N=6) tumor targets. FIG. 24B is a graph showing pooled analysis of proportion of NK cells from healthy donors expressing IFNγ against A549(N=6) tumor targets. FIG. 24C is a graph showing pooled analysis of proportion of NK cells from healthy donors expressing CD107a+ against NCI-H322 (N=5) tumor targets. FIG. 24D is a graph showing pooled analysis of proportion of NK cells from healthy donors expressing IFNγ against NCI-H322 (N=5) tumor targets. FIG. 24E is a graph showing pooled proportion of NK cells from healthy donors (black bars) or lung cancer patients (white bars) expressing CD107a+ against NCI-H460 (N=7). FIG. 24F is a graph showing pooled proportion of NK cells from healthy donors (black bars) or lung cancer patients (white bars) expressing IFNγ against NCI-H460 (N=7). ** p<0.01, *** p<0.001, and **** p<0.0001.
ADCC was measured in a flow cytometry assay by evaluating degranulation via CD107a (lysosomal-associated membrane protein LAMP-1) and intracellular IFNγ production. […] Samples were washed and evaluated in an LSRII flow cytometer (BD Biosciences, San Jose, CA, USA). […]

[2] = test system: PC3 prostate cancer cells; assay: NK cell CD107a / IFNγ flow cytometry against PC3; settings: normal donor and prostate cancer patient NK cells, vs controls
Source text: FIG. 15A is a graph showing pooled analysis of proportion of NK cells from healthy donors or prostate cancer patients expressing CD107a+ (top) or IFNγ (bottom) against C4-2 targets (N=9 for healthy donors, N=3 for patients). FIG. 15B is a graph showing pooled analysis of proportion of NK cells from healthy donors or prostate cancer patients expressing CD107a+ (top) or IFNγ (bottom) against DU145 targets (N=9 for healthy donors, N=3 for patients). FIG. 15C is a graph showing pooled analysis of proportion of NK cells from healthy donors or prostate cancer patients expressing CD107a+ (top) or IFNγ (bottom) against LNCaP targets (N=9 for healthy donors, N=3 for patients). FIG. 15D is a graph showing pooled analysis of proportion of NK cells from healthy donors or prostate cancer patients expressing CD107a+ (top) or IFNγ (bottom) against PC3 targets (N=9 for healthy donors, N=3 for patients). * p<0.05, ** p<0.01, *** p<0.001, and **** p<0.0001.
ADCC was measured in a flow cytometry assay by evaluating degranulation via CD107a (lysosomal-associated membrane protein LAMP-1) and intracellular IFNγ production. Upon thawing, normal donor and patient-derived PBMCs or ascites cells were rested overnight (37° C., 5% CO2) in RPMI 1640 media supplemented with 10% fetal calf serum (RPMI-10). […] Samples were washed and evaluated in an LSRII flow cytometer (BD Biosciences, San Jose, CA, USA). […]

“B7-H3 TriKE: camelid nanobodies targeting CD16 and B7-H3 joined by IL-15 and two linkers; sequence table equates the name with cam1615B7-H3” was tested, and the “NK cell killing of MM1S” value (MM1S cells) was “significantly enhanced killing”.

“cam1615B7-H3: second-generation TriKE: humanized camelid anti-CD16 VHH, human wild-type IL-15, anti-B7-H3 mAb 376.96 scFv; SEQ ID NO:1” was tested, and the “NK cell activation against NCI-H322” value [1] was “significantly and robustly improved NK cell activation”, the “NK cell IFNγ production against PC3” value [2] was “enhanced” and the “NK cell degranulation (CD107a) against PC3” value [2] was “enhanced”.
